{"source": "patent US20080213281A1", "about": "“Butyrylcholinesterase Variants that Alter the Activity of Chemotherapeutic Agents” (priority 2002, published 2008)", "molecules": {"B1": {"name": "AME133 (protein)", "light": "EIVLTQSPGTLSLSPGERATLSCRASSSVPYIHWYQQKPGQAPRLLIYATSALASGIPDRFSGSGSGTDFTLTISRLEPEDFAVYYCQQWLSNPPTFGQGTKLEIKRTVAAPSVFIFPPSDEQLKSGTASVVCLLNNFYPREAKVQWKVDNALQSGNSQESVTEQDSKDSTYSLSSTLTLSKADYEKHKVYACEVTHQGLSSPVTKSFNRGEC", "heavy": "EVQLVQSGAEVKKPGESLKISCKGSGRTFTSYNMHWVRQMPGKGLEWMGAIYPLTGDTSYNQKSKLQVTISADKSISTAYLQWSSLKASDTAMYYCARSTYVGGDWQFDVWGKGTTVTVSSASTKGPSVFPLAPSSKSTSGGTAALGCLVKDYFPEPVTVSWNSGALTSGVHTFPAVLQSSGLYSLSSVVTVPSSSLGTQTYICNVNHKPSNTKVDKKAEPKSCDKTHTCPPCPKLEDDIIIATKNGKVRGMNLTVFGGTVTAFLGIPYAQPPLGRLRFKKPQSLTKWSDIWNATKYANSCCQNIDQSFPGFFGSEMWNPNTDLSEDCLYLNVWIPAPKPKNATVLIWIYGGGFQTGTSSLHVYDGKFLARVERVIVVSMNYRVGALGFLALPGNPEAPGNMGLFDQQLALQWVQKNIAAFGGNPKSVTLFGESAGAASVSLHLLSPGSHSLFTRAILQSGSANAPWAVTSLYEARNRTLNLAKLTGCSRENETEIIKCLRNKDPQEILLNEAFVVPYGTNLSVNFGPTVDGDFLTDMPDILLELGQFKKTQILVGVNKDEGTAFLAYGAPGFSKDNNSIITRKEFQEGLKIFFPGVSEFGKESILFHYTDWVDDQRPENYREALGDVVGDYNFICPALEFTKKFSEWGNNAFFYYFEHRSSKLPWPEWMGVMHGYEIEFVFGLPLERRDNYTKAEEILSRSIVKRWANFAKYGNPNETQNNSTSWPVFKSTEQKYLTLNTESTRIMTKLRAQQCRFWTSFFPKV", "modifications": "Synthetic butyrylcholinesterase variant; MISC_FEATURE (1)..(213): Anti-CD20 antibody light chain; MISC_FEATURE (1)..(765): Anti-CD20 antibody VH-CH1 hinge cys L530 BChE.4-1 heavy chain construct"}}, "key": {"[1]": {"settings": "patients treated with 200 mg/m2 CPT-11; for at least 24 hours; Ducreux et al.; cited from earlier work"}, "[2]": {"settings": "in vitro; Pavillard et al.; cited from earlier work"}, "[3]": {"biological_target": "T1, CD20 (Homo sapiens, UniProt P11836)", "T1 sequence (P11836 1-297)": "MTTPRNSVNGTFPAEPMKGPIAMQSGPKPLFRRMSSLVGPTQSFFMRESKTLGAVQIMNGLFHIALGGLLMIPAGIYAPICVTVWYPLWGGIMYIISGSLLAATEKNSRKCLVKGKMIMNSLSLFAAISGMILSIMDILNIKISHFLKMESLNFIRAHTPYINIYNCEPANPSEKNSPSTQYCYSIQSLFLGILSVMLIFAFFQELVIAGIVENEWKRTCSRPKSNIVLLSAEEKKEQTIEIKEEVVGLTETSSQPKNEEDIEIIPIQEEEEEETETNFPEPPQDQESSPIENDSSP", "assay": "affinity of monovalent AME133 Fab for CD20", "type": "binding", "description": "AME133 is a humanized anti-CD20 with fully human germline framework regions shown in FIGS. 19 and 20 and set forth as SEQ ID NOS: 198 and 200, with corresponding nucleic acid sequences SEQ ID NOS: 197 and 199. This antibody was generated at Applied Molecular Evolution using the company's directed evolution strategies, and the monovalent Fab binds to CD20 with extremely high affinity (1×10^−9 M). Anti-CD20-BChE.4-1 (SEQ ID NO: 202) is composed of AME133 Fab fused at the C-terminal end of the CH1 heavy chain domain to the N-terminus of modified BChE variant L530 (SEQ ID NO: 204), which is a functional fragment of reference SEQ ID NO: 180. The BChE variant was truncated at amino acid 530 to abrogate its normal assembly into tetramers."}}, "data": [{"molecule": "CCc1c2c(nc3ccc(OC(=O)N4CCC(N5CCCCC5)CC4)cc13)-c1cc3c(c(=O)n1C2)COC(=O)[C@]3(O)CC", "note": "[CPT-11, 7-ethyl-10-[4-(1-piperidino)-1-piperidine]carbonyloxycamptothecin]", "values": [{"measurement": "plasma concentration of CPT-11", "setting": "[1]", "result": "above 0.1 μM"}]}, {"molecule": "CCc1c2c(nc3ccc(O)cc13)-c1cc3c(c(=O)n1C2)COC(=O)[C@]3(O)CC", "note": "[SN38, 7-ethyl-10-hydroxycamptothecin]", "values": [{"measurement": "fold more cytotoxic than CPT-11", "setting": "[2]", "result": "greater than 1000 fold"}]}, {"molecule": "B1", "values": [{"measurement": "Kd", "setting": "[3]", "result": 1, "unit": "nM"}]}]}
